Data from the supplement of paper PMC10307832.

Assays:
Assay in all cases: relative viability (nuclei count vs DMSO), 5 days (fraction); higher = more cells survive
[1] = compound: CNC(=O)c1cc(Oc2ccc(NC(=O)Nc3ccc(Cl)c(C(F)(F)F)c3)cc2)ccn1 [Sorafenib] + CC(=O)c1c(C)c2cnc(Nc3ccc(N4CCNCC4)cn3)nc2n(C2CCCC2)c1=O [Palbociclib] (partner 0.5 µM)
How it was run: (§1)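 Relative viability is defined as nuclei in treated wells over nuclei in vehicle wells. Duplicate plates were run and medians reported. Lung cancer cell lines in 1536-well plates were dosed by pin tool one day after seeding, with one drug or with a fixed anchor-drug dose plus five library-drug doses (not always all listed) in √10 steps, and nuclei were counted after 5 days.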

[2] = compound: CNC(=O)c1cc(Oc2ccc(NC(=O)Nc3ccc(Cl)c(C(F)(F)F)c3)cc2)ccn1 [Sorafenib] + CC(C)C[C@H](NC(=O)[C@H](Cc1ccccc1)NC(=O)c1cnccn1)B(O)O [Bortezomib] (partner 0.002 µM)
How it was run: as §1

[3] = compound: CNC(=O)c1cc(Oc2ccc(NC(=O)Nc3ccc(Cl)c(C(F)(F)F)c3)cc2)ccn1 [Sorafenib] + CC1(C)CCC(c2ccc(Cl)cc2)=C(CN2CCN(c3ccc(C(=O)NS(=O)(=O)c4ccc(N[C@H](CCN5CCOCC5)CSc5ccccc5)c(S(=O)(=O)C(F)(F)F)c4)cc3)CC2)C1 [Navitoclax] (partner 0.5 µM)
How it was run: as §1

[4] = compound: CNC(=O)c1cc(Oc2ccc(NC(=O)Nc3ccc(Cl)c(C(F)(F)F)c3)cc2)ccn1 [Sorafenib] + COc1cccc2cc(-c3nc([C@H]4CC[C@H](C(=O)O)CC4)n4ncnc(N)c34)[nH]c12 [OSI-027] (partner 0.5 µM)
How it was run: as §1

[5] = compound: CNC(=O)c1cc(Oc2ccc(NC(=O)Nc3ccc(Cl)c(C(F)(F)F)c3)cc2)ccn1 [Sorafenib] + Nc1ncn([C@H]2C[C@H](O)[C@@H](CO)O2)c(=O)n1 [Decitabine] (partner 2 µM)
How it was run: as §1

Cell Line	relative viability ([1]; first compound 0.08 µM)	relative viability ([1]; first compound 0.253 µM)	relative viability ([1]; first compound 2.53 µM)	relative viability ([1]; first compound 8 µM)	relative viability ([2]; first compound 0.08 µM)	relative viability ([2]; first compound 0.253 µM)	relative viability ([2]; first compound 2.53 µM)	relative viability ([2]; first compound 8 µM)	relative viability ([3]; first compound 0.08 µM)	relative viability ([3]; first compound 0.253 µM)	relative viability ([3]; first compound 2.53 µM)	relative viability ([3]; first compound 8 µM)	relative viability ([4]; first compound 0.08 µM)	relative viability ([4]; first compound 0.253 µM)	relative viability ([4]; first compound 2.53 µM)	relative viability ([4]; first compound 8 µM)	relative viability ([5]; first compound 0.08 µM)	relative viability ([5]; first compound 0.253 µM)	relative viability ([5]; first compound 2.53 µM)	relative viability ([5]; first compound 8 µM)
NCI-H1734	0.376	0.329	0.37	0.275	1.01	1.14	0.885	0.346	0.858	0.721	0.721	0.492	0.585	0.534	0.584	0.318	0.479	0.445	0.484	0.431
NCI-H1755	0.482		0.461		0.921	0.945	0.988	0.689	1.02	0.987	0.924	0.705	0.718	0.639	0.746	0.666	0.72	0.715	0.753	0.634
NCI-H1792	0.722	0.684	0.646	0.654	1.02	0.957	0.958	0.92	0.671	0.51	0.585	0.544	0.811	0.697	0.695	0.394	0.507	0.492	0.489	0.456
NCI-H1915	0.54	0.574	0.581	0.413	1.01	0.766	0.923	0.99	0.785	0.706	0.681	0.798	0.659	0.558	0.682	0.512	0.26	0.254	0.268	0.247
NCI-H1975	0.712	0.49	0.656	0.311	0.404	0.375	0.445	0.201	1.01	1.1	1.18	0.853	0.812	0.55	0.695	0.375	0.431	0.383	0.365	0.353
NCI-H1993	0.662	0.656	0.751	0.565	1.6	0.994	1.24	1.07	1.07	0.973	0.914	0.753	0.477	0.517	0.504	0.435		0.478	0.665	0.489
NCI-H2009	0.275	0.115	0.21	0.198	0.898	0.689	0.912	0.522	1.11	1.02	1.1	0.937	0.629	0.355	0.601	0.303	0.375	0.394	0.315	0.227
NCI-H2023	0.49	0.444	0.435	0.106	1.2	1.02	0.945	0.319	1.02	0.984	1.01	0.978	0.51	0.338	0.387	0.19	0.235	0.232	0.22	0.189
NCI-H2085	0.442	0.491	0.51	0.497	1.09	0.824	1.01	0.91	1.21	1.07	1.17	0.901	0.934	0.544	0.704	0.396	0.608	0.566	0.573	0.49
NCI-H2087	0.245	0.209	0.15	0.159	0.76	0.708	0.849	0.454	1.05	0.772	0.892	0.29	0.658	0.556	0.455	0.3	0.304	0.231	0.172	0.107
NCI-H2126	0.354	0.375	0.411	0.399	1.14	1.17	1.09	1.16	0.892	0.782	0.888	0.867	0.824	0.665	0.712	0.703	0.631	0.524	0.562	0.643
NCI-H2347	0.432	0.464	0.434	0.43	1.13	0.997	1.02	0.868	0.932	0.676	0.84	0.815	0.48	0.378	0.458	0.391	0.592	0.628	0.675	0.594
NCI-H2405	0.553	0.517	0.561	0.477	1.03	0.905	1	0.926	1.16	0.88	0.7	0.348	0.679	0.662	0.731	0.546	0.754	0.726	0.737	0.577
NCI-H3122	0.204	0.2	0.177	0.18	0.993	0.984	1.06	0.952	1.04	1.06	1.03	0.753	0.99	0.898	0.805	0.378	0.384	0.467	0.375	0.189
PC-3 [JPC-3]	0.522	0.552	0.576	0.606	0.875	0.726	0.818	0.928	0.883	0.775	0.806	0.877	0.805	0.722	0.692	0.617	0.835	0.763	0.837	0.826
PC-14	0.62	0.512	0.518	0.158	0.911	0.89	0.827	0.316	1.02	0.949	0.888	0.955	0.96		0.745	0.321	0.22	0.177	0.225	0.156
